What was measured:
Format in all cases: in vivo
[1] = system: barnyardgrass (Echinochloa crus-galli); test: Test E pre-/postemergence: barnyardgrass; conditions: Preemergence, scale 0 to 100
Source text: (§1) Seeds of plant species selected from corn (Zea mays), soybean (Glycine max), velvetleaf (Abutilon theophrasti), lambsquarters (Chenopodium album), poinsettia, wild (wild poinsettia, Euphorbia heterophylla), pigweed, palmer (palmer pigweed, Amaranthus palmeri), waterhemp (common waterhemp, Amaranthus rudis), smartweed (ladysthumb smartweed, Polygonum persicaria), surinam grass (Brachiaria decumbens), crabgrass, large (large crabgrass, Digitaria sanguinalis), crabgrass, Brazil (Brazilian crabgrass, Digitaria horizontalis), panicum, fall (fall panicum, Panicum dichotomiflorum), foxtail, giant (giant foxtail, Setaria faberii), foxtail, green (green foxtail, Setaria viridis), goosegrass (Eleusine indica), johnsongrass (Sorghum halepense), ragweed (common ragweed, Ambrosia elation), barnyardgrass (Echinochloa crus-galli), sandbur (southern sandbur, Cenchrus echinatus), arrowleaf sida (Sida rhombifolia), ryegrass, Italian (Italian ryegrass, Lolium multiflorum), dayflower, (VA) (Virginia dayflower, Commelina virginica), field bindweed (Convolvulus arvensis), cocklebur (common cocklebur, Xanthium strumarium), morningglory (Ipomoea coccinea), nightshade (eastern black nightshade, Solanum ptycanthum), kochia (Kochia scoparia), nutsedge, yellow (yellow nutsedge, Cyperus esculentus) and beggarticks (hairy beggarticks, Bidens pilosa) were planted into a silt loam soil and treated preemergence with test chemicals formulated in a non-phytotoxic solvent mixture which included a surfactant. At the same time, plants selected from these crop and weed species were planted in pots containing a growing medium comprising spaghnum peat moss, vermiculite, wetting agent and starter nutrients and treated with postemergence applications of some of the test chemicals formulated in the same manner. Plants ranged in height from 2 to 18 cm for postemergence treatments (1- to 4-leaf stage).
(§2) Treated plants and controls were maintained in a greenhouse for 14 to 21 days, after which time all species were compared to controls and visually evaluated. Plant response ratings, summarized in Table E, are based on a scale of 0 to 100 where 0 is no effect and 100 is complete control. A dash (-) response means no test result.

corn (Zea mays) = test: Test E pre-/postemergence: corn; conditions: Preemergence, scale 0 to 100
Source text: as §1, §2

[2] = system: crabgrass, Brazil (Brazilian crabgrass, Digitaria horizontalis); test: Test E pre-/postemergence: crabgrass, Brazil; conditions: Preemergence, scale 0 to 100
Source text: as §1, §2

[3] = system: surinam grass (Brachiaria decumbens); test: Test E pre-/postemergence: surinam grass; conditions: Preemergence, scale 0 to 100
Source text: as §1, §2

soybean (Glycine max) [4] = test: Test E pre-/postemergence: soybean; conditions: Preemergence, scale 0 to 100
Source text: as §1, §2

[5] = system: beggarticks (hairy beggarticks, Bidens pilosa); test: Test F pre-/postemergence: beggarticks; conditions: Postemergence, scale 0 to 100
Source text: (§3) Seeds of plant species selected from corn (Zea mays), soybean (Glycine max), velvetleaf (Abutilon theophrasti), lambsquarters (Chenopodium album), poinsettia, wild (wild poinsettia, Euphorbia heterophylla), pigweed, palmer (palmer pigweed, Amaranthus palmeri), waterhemp (common waterhemp, Amaranthus rudis), surinam grass (Brachiaria decumbens), crabgrass, Brazil (Brazilian crabgrass, Digitaria horizontalis), panicum, fall (fall panicum Panicum dichotomiflorum), crabgrass, large (large crabgrass, Digitaria sanguinalis), foxtail, giant (giant foxtail, Setaria faberii), foxtail, green (green foxtail Setaria viridis), goosegrass (Eleusine indica), ragweed (common ragweed, Ambrosia elatior), barnyardgrass (Echinochloa crus-galli), sandbur (southern sandbur, Cenchrus echinatus), arrowleaf sida (Sida rhombifolia), ryegrass, Italian (Italian ryegrass, Lolium multiflorum), dayflower, VA (Virginia (VA) dayflower, Commelina virginica), field bindweed (Convolvulus arvensis), cocklebur (common cocklebur, Xanthium strumarium), morningglory (Ipomoea coccinea), nightshade (eastern black nightshade, Solanum ptycanthum), kochia (Kochia scoparia), nutsedge, yellow (yellow nutsedge, Cyperus esculentus), johnsongrass (Sorghum halepense), smartweed (ladysthumb smartweed, Polygonum persicaria), and beggarticks (hairy beggarticks, Bidens pilosa), were planted into a silt loam soil and treated preemergence with test chemicals formulated in a non-phytotoxic solvent mixture which included a surfactant. At the same time, plants selected from these crop and weed species and also pigweed (Amaranthus retroflexus), waterhemp_RES1 (ALS/Triazine resistant common waterhemp, Amaranthus rudis) and waterhemp_RES2 (ALS/HPPD resistant common waterhemp, Amaranthus rudis) were planted in pots containing a planting medium comprising spaghnum peat moss, vermiculite, wetting agent and starter nutrients treated with postemergence applications of some of the test chemicals formulated in the same manner. Plants ranged in height from 2 to 18 cm for postemergence treatments (1- to 4-leaf stage).
as §2

[6] = system: waterhemp (common waterhemp, Amaranthus rudis); test: Test F pre-/postemergence: waterhemp; conditions: Postemergence, scale 0 to 100
Source text: as §3, §2

soybean (Glycine max) [7] = test: Test F pre-/postemergence: soybean; conditions: Postemergence, scale 0 to 100
Source text: as §3, §2

How did the “Plant response rating: Barnyardgrass” value ([1]; 8 g ai/ha) turn out when `Cc1nn(-c2ccc(F)cc2)nc1Oc1ccnc(C(F)(F)F)c1` [Compound 129, 4-[[2-(4-fluorophenyl)-5-methyl-2H-1,2,3-triazol-4-yl]oxy]-2-(trifluoromethyl)pyridine] was run?
Its value is 0.

What about the “Plant response rating: Barnyardgrass” value ([1]; 16 g ai/ha) of the same compound?
Its value is 0.

And the “Plant response rating: Barnyardgrass” value ([1]; 31 g ai/ha)?
Its value is 5.

What about the “Plant response rating: Barnyardgrass” value ([1]; 62 g ai/ha) of the same compound?
The value was 10.

What about the “Plant response rating: Barnyardgrass” value ([1]; 125 g ai/ha) of the same compound?
Its value is 35.

And the “Plant response rating: Corn” value (corn (Zea mays); 8 g ai/ha)?
The value was 0.

And the “Plant response rating: Corn” value (corn (Zea mays); 16 g ai/ha)?
Its value is 0.

And the “Plant response rating: Corn” value (corn (Zea mays); 31 g ai/ha)?
The value was 0.

And the “Plant response rating: Corn” value (corn (Zea mays); 62 g ai/ha)?
The value was 10.

What about the “Plant response rating: Corn” value (corn (Zea mays); 125 g ai/ha) of the same compound?
Its value is 10.

What about the “Plant response rating: Crabgrass, Brazil” value ([2]; 8 g ai/ha) of the same compound?
The value was 10.

What about the “Plant response rating: Crabgrass, Brazil” value ([2]; 16 g ai/ha) of the same compound?
Its value is 15.

And the “Plant response rating: Crabgrass, Brazil” value ([2]; 31 g ai/ha)?
The value was 60.

What about the “Plant response rating: Crabgrass, Brazil” value ([2]; 62 g ai/ha) of the same compound?
Its value is 95.

What about the “Plant response rating: Crabgrass, Brazil” value ([2]; 125 g ai/ha) of the same compound?
Its value is 100.

What about the “Plant response rating: Surinam Grass” value ([3]; 8 g ai/ha) of the same compound?
The value was 0.

What about the “Plant response rating: Surinam Grass” value ([3]; 16 g ai/ha) of the same compound?
The value was 0.

And the “Plant response rating: Surinam Grass” value ([3]; 31 g ai/ha)?
Its value is 15.

What about the “Plant response rating: Surinam Grass” value ([3]; 62 g ai/ha) of the same compound?
Its value is 15.

And the “Plant response rating: Surinam Grass” value ([3]; 125 g ai/ha)?
The value was 60.

What about the “Plant response rating: Soybean” value (soybean (Glycine max) [4]; 8 g ai/ha) of the same compound?
Its value is 0.

And the “Plant response rating: Soybean” value (soybean (Glycine max) [4]; 16 g ai/ha)?
The value was 15.

And the “Plant response rating: Soybean” value (soybean (Glycine max) [4]; 31 g ai/ha)?
The value was 15.

What about the “Plant response rating: Soybean” value (soybean (Glycine max) [4]; 62 g ai/ha) of the same compound?
The value was 20.

What about the “Plant response rating: Soybean” value (soybean (Glycine max) [4]; 125 g ai/ha) of the same compound?
Its value is 25.

For `Cc1nn(-c2ccc(F)cc2)nc1Cc1ccnc(C(F)(F)F)c1` [Compound 16, 4-[[2-(4-fluorophenyl)-5-methyl-2H-1,2,3-triazol-4-yl]methyl]-2-(trifluoromethyl)pyridine], which “Plant response rating: Barnyardgrass” value ([1]; 8 g ai/ha) is on record?
The value was 0.

What about the “Plant response rating: Barnyardgrass” value ([1]; 16 g ai/ha) of the same compound?
The value was 10.

And the “Plant response rating: Barnyardgrass” value ([1]; 31 g ai/ha)?
Its value is 50.

What about the “Plant response rating: Barnyardgrass” value ([1]; 62 g ai/ha) of the same compound?
Its value is 98.

What about the “Plant response rating: Barnyardgrass” value ([1]; 125 g ai/ha) of the same compound?
The value was 98.

What about the “Plant response rating: Corn” value (corn (Zea mays); 8 g ai/ha) of the same compound?
The value was 0.

What about the “Plant response rating: Corn” value (corn (Zea mays); 16 g ai/ha) of the same compound?
The value was 0.

What about the “Plant response rating: Corn” value (corn (Zea mays); 31 g ai/ha) of the same compound?
The value was 0.

What about the “Plant response rating: Corn” value (corn (Zea mays); 62 g ai/ha) of the same compound?
The value was 20.

And the “Plant response rating: Corn” value (corn (Zea mays); 125 g ai/ha)?
Its value is 20.

What about the “Plant response rating: Crabgrass, Brazil” value ([2]; 8 g ai/ha) of the same compound?
The value was 30.

And the “Plant response rating: Crabgrass, Brazil” value ([2]; 16 g ai/ha)?
The value was 70.

And the “Plant response rating: Crabgrass, Brazil” value ([2]; 31 g ai/ha)?
Its value is 95.

What about the “Plant response rating: Crabgrass, Brazil” value ([2]; 62 g ai/ha) of the same compound?
The value was 100.

What about the “Plant response rating: Crabgrass, Brazil” value ([2]; 125 g ai/ha) of the same compound?
Its value is 100.

What about the “Plant response rating: Surinam Grass” value ([3]; 8 g ai/ha) of the same compound?
The value was 0.

What about the “Plant response rating: Surinam Grass” value ([3]; 16 g ai/ha) of the same compound?
The value was 0.

What about the “Plant response rating: Surinam Grass” value ([3]; 31 g ai/ha) of the same compound?
Its value is 0.

What about the “Plant response rating: Surinam Grass” value ([3]; 62 g ai/ha) of the same compound?
The value was 30.

And the “Plant response rating: Surinam Grass” value ([3]; 125 g ai/ha)?
Its value is 35.

And the “Plant response rating: Soybean” value (soybean (Glycine max) [4]; 8 g ai/ha)?
The value was 0.

What about the “Plant response rating: Soybean” value (soybean (Glycine max) [4]; 16 g ai/ha) of the same compound?
Its value is 0.

What about the “Plant response rating: Soybean” value (soybean (Glycine max) [4]; 31 g ai/ha) of the same compound?
The value was 0.

And the “Plant response rating: Soybean” value (soybean (Glycine max) [4]; 62 g ai/ha)?
The value was 0.

And the “Plant response rating: Soybean” value (soybean (Glycine max) [4]; 125 g ai/ha)?
The value was 20.

What does the source list for `Cc1nn(-c2ccc(F)c(F)c2)nc1Oc1ccnc(C(F)(F)F)c1` [Compound 145]?
Plant response rating, Beggarticks ([5]; 8 g ai/ha): 10; Plant response rating, Beggarticks ([5]; 16 g ai/ha): 25; Plant response rating, Beggarticks ([5]; 31 g ai/ha): 30; Plant response rating, Beggarticks ([5]; 62 g ai/ha): 35; Plant response rating, Beggarticks ([5]; 125 g ai/ha): 45; Plant response rating, Waterhemp ([6]; 8 g ai/ha): 90; Plant response rating, Waterhemp ([6]; 16 g ai/ha): 90; Plant response rating, Waterhemp ([6]; 31 g ai/ha): 95; Plant response rating, Waterhemp ([6]; 62 g ai/ha): 95; Plant response rating, Waterhemp ([6]; 125 g ai/ha): 95; Plant response rating, Soybean (soybean (Glycine max) [7]; 8 g ai/ha): 25; Plant response rating, Soybean (soybean (Glycine max) [7]; 16 g ai/ha): 35; Plant response rating, Soybean (soybean (Glycine max) [7]; 31 g ai/ha): 40; Plant response rating, Soybean (soybean (Glycine max) [7]; 62 g ai/ha): 50; Plant response rating, Soybean (soybean (Glycine max) [7]; 125 g ai/ha): 60

From patent publication US9302999B2, “Substituted triazoles as herbicides” (E. I. DU PONT DE NEMOURS AND COMPANY, priority 2012, dated 2016)
